Experimental data reported in patent US20230126361A1, “METHODS OF CONTROLLING OR PREVENTING INFESTATION OF PLANTS BY THE PHYTOPATHOGENIC MICROORGANISM CORYNESPORA CASSIICOLA, […] AND/OR […]” (SYNGENTA CROP PROTECTION AG, priority 2020, published 2023).

Tests used:
Format in all cases: cell-based
Settings in all cases: PDB, 24° C., 3-4 days, 620 nm
Cercospora sojina = Cercospora sojina (frogeye leaf spot) liquid culture growth inhibition
Protocol: (§1) Conidia of the fungus from cryogenic storage were directly mixed into nutrient broth (PDB potato dextrose broth). A DMSO solution of the test compounds was placed into a microtiter plate (96-well format) and the nutrient broth containing the fungal spores was added to it. The test plates were incubated at 24° C. and the inhibition of growth was determined photometrically after 3-4 days at 620 nm.

Corynespora cassiicola = Corynespora cassiicola (target leaf spot) liquid culture growth inhibition
Protocol: Conidia of the fungus from cryogenic storage were directly mixed into nutrient broth (PDB potato dextrose broth). A DMSO solution of the test compounds was placed into a microtiter plate (96-well format) and the nutrient broth containing the fungal spores was added to it. The test plates were incubated at 24° C. and the inhibition of growth (% control of Corynespora cassiicola) was determined photometrically after 3-4 days at 620 nm. The activity of a compound is derived by comparing the inhibition of growth in the treated test solution to the growth in the untreated check. […]

Cercospora kikuchii = Cercospora kikuchii (leaf blight) liquid culture growth inhibition
Protocol: as §1

Structure (SMILES): Cc1nc2c(F)c(F)ccc2cc1Oc1cccc(F)c1C(C)(C)O [2-[2-(7,8-difluoro-2-methylquinolin-3-yloxy)-6-fluorophenyl]propan-2-ol]
- % control of Cercospora sojina (Cercospora sojina; 0.25 ppm): at least 20%
- % control of Cercospora sojina (Cercospora sojina; 0.74 ppm): at least 20%
- % control of Cercospora sojina (Cercospora sojina; 2.2 ppm): at least 50%
- % control of Cercospora sojina (Cercospora sojina; 6.7 ppm): at least 50%
- % control of Corynespora cassiicola (Corynespora cassiicola; 0.027 ppm): at least 20%
- % control of Corynespora cassiicola (Corynespora cassiicola; 0.25 ppm): at least 20%
- % control of Corynespora cassiicola (Corynespora cassiicola; 0.74 ppm): at least 50%
- % control of Corynespora cassiicola (Corynespora cassiicola; 2.2 ppm): at least 70%
- % control of Corynespora cassiicola (Corynespora cassiicola; 6.7 ppm): at least 90%
- % control (Example 3: Cercospora kikuchii) (Cercospora kikuchii; 0.74 ppm): at least 20%
- % control of Cercospora kikuchii (Cercospora kikuchii; 2.2 ppm): at least 50%
- % control of Cercospora kikuchii (Cercospora kikuchii; 6.7 ppm): at least 50%
